From patent publication US20220363673A1, “5-(Thiophen-2-YL)-1 H-Tetrazole Derivative as BCKDK Inhibitors Useful for Treating Various Diseases” (Pfizer Inc., priority 2019, published 2022)

Columns and labels:
human BCKDK = molecular target: T1, human BCKDK (Homo sapiens, UniProt O14874); assay: In Vitro FRET (TR-FRET) BCKDK activity assay, phosphorylation of BCKDHE1α-E2 fusion substrate; type: biochemical; settings: geometric mean, two significant figures; 15 μM ATP
T1 construct: human BCKDK (residues 31-412 of the protein pre-processing); 6xHis (N, cleaved yes); MBP (N, cleaved yes); TEV protease site (ENLYFQG) (N, cleaved yes); made in house; host or cells: BL21(DE3) E. coli, co-expressed with GroEL-GroES
Description: BCKDK protein was generated using a pET vector containing from N- to C-terminus: 6×His, MBP, a TEV protease site (ENLYFQG), a biotin acceptor peptide ([…]), and human BCKDK (residues 31-412 of the protein pre-processing). Protein was co-expressed with GroEL-GroES in BL21(DE3) E. coli in LB media, and protein production was induced with 0.5 mM IPTG and 0.5 mg/mL L-arabinose at an OD600 of 1 and grown for 16 h at 26° C. Bacteria were lysed using a Microfluidizer in 100 mM potassium phosphate pH 7.5, 500 mM NaCl, 0.1 mM EDTA, 1% Tween-20, 0.25% Triton X-100, 10% glycerol, 1 mM DTT, and protease inhibitors. MBP-tagged protein was purified by affinity chromatography using amylose resin, and MBP was removed from BCKDK by TEV protease incubation followed by gel filtration chromatography in 50 mM HEPES pH 7.5, 500 mM NaCl, 300 mM L-Arginine, 2 mM MgCl2, 1 mM DTT, and 10% glycerol.
A pET vector containing E. coli LplA was expressed in BL21(DE3) E. coli in LB media, and protein production was induced with 0.75 mM IPTG at an OD600 of 1 and grown for 16 h at 30° C. Bacteria were lysed using a Microfluidizer in 50 mM sodium phosphate buffer pH 7.5, 350 mM NaCl, 1.5 mM MgCl2, and 1 mM DTT. LplA protein was precipitated from clarified lysate with 1 M ammonium sulfate and further purified by gel filtration chromatography in 50 mM sodium phosphate pH 7.5, 350 mM NaCl, 1.5 mM MgCl2, 1 mM DTT, and 10% glycerol.
The BCKDHE1α-E2 fusion substrate was cloned into a pET vector and contained from N- to C-terminus: the lipoyl binding domain of E2 (residues 62-160 pre-processing), a TEV protease site (LENLYFQG), residues 331-345 (pre-processing) from E1α, and 6×His (Tso, S. C. et al., J Biol Chem 2014, 289 (30), 20583-20593). The fusion substrate was expressed in BL21(DE3) E. coli in LB media, and protein production was induced with 0.75 mM IPTG at an OD600 of 1 and grown for 16 h at 30° C. Bacteria were lysed using a Microfluidizer in 50 mM sodium phosphate pH 7.5, 350 mM NaCl, 10 mM imidazole, 10% glycerol, 1 mM DTT, and protease inhibitors. […] For lipoylation, fusion substrate was incubated with LplA at a 10:1 (substrate:LplA) ratio in 20 mM sodium phosphate pH 7.4, 6 mM MgCl2, 4 mM ATP, 2 mM DTT, 3 mM DL-6,8-thioctic acid at 37° C. The reaction was monitored using an Agilent 6530 Q-TOF coupled to an Agilent 1290 UPLC. The final lipoylated fusion substrate was purified by gel filtration chromatography in 50 mM HEPES pH 7.5, 350 mM NaCl, 1.5 mM MgCl2, 1 mM DTT, 10% glycerol.
BCKDK activity was monitored by phosphorylation of a HIS-tagged fusion BCKDHE1α-E2 substrate protein as described above and was detected using a time resolved-fluorescence resonance energy transfer (TR-FRET) assay system. Compounds were spotted into a 384 well plate, and purified human BCKDK protein was added to the plated compound. After incubation, the LBD-linker-E1 phosphorylation sequence was added in the presence of 15 μM ATP. The reaction was terminated with EDTA. Phosphorylated substrate was recognized by the addition of rabbit anti-E1 phospho Ser293 antibodies (Bethyl Laboratories—A304-672A), and the TR-FRET signal was developed by addition of anti-HIS donor molecules (Europium; Perkin Elmer—AD0205, AD0110, AD0111) and anti-Rabbit acceptor molecules (Ulight; Perkin Elmer—TRF502D, TRF502M, TRF502R). Recognition of phosphorylated E1 brought donor and acceptor molecules into close proximity, and excitation at 320 nm caused energy transfer from the Europium donor to the Ulight acceptor dye, which in turn generated light at 665 nm. Signal intensity was proportional to the level of BCKDK-mediated substrate phosphorylation. Reactions were normalized to zero percent effect with DMSO and one hundred percent effect with 600 μM Radicicol, a known BCKDK inhibitor. IC50 curves were generated using ABASE software (IDBS, Boston Mass.).

[1] = system: phosphorylation of S293 BCKDH; assay: Phospho BCKDHA AlphaLISA in human skeletal myocytes; type: cell-based; settings: 1 h, 60 minutes, maximal effect relative to BT2
Description: Prior to conducting the assay, BCKDH antibodies (Bethyl A303-790A) were biotinylated using the ChromaLink™ One-Shot Antibody Biotinylation Kit B-9007-009K and phospho Ser293 BCKDHA antibodies (Bethyl A304-672A) were directly conjugated to AlphaLISA Acceptor Beads (custom conjugation performed by Perkin Elmer's Lance/Delfia Custom Services, Boston Mass.). Human skeletal myocytes (Gibco A11440) were plated in a 384 well plate at a density of 7500 live cells/well and grown in skeletal muscle growth media containing the media supplement and chick embryo extract (Promocell C-23060 and C-23160, MP92850145). After overnight incubation, media was removed, and BCKDK inhibitors were added in assay media (growth media diluted 10-fold in PBS). After 60 minutes, the media was removed, the cells were washed with PBS and lysed in 10 μL of buffer (Cell Signaling #9803) containing 2 nM biotinylated total BCKDH antibodies. Samples were incubated for 60 minutes, and 5 μL of AlphaLISA acceptor beads conjugated with phospho-S293 BCKDH antibodies were added 1× Alpha buffer. […] Fluorescence was emitted when the phospho and total BCKDH antibodies were within proximity, signifying phosphorylation of S293 BCKDH. Fluorescence was monitored on the Envision plate reader. The zero percent effect was determined from DMSO treatment and the maximal effect was assessed relative to the BCKDK inhibitor BT2. […]

[2] = system: Dahl salt sensitive male rats; assay: Heart Failure Rat Model, high salt diet; type: in vivo
Description: Dahl salt sensitive male rats (Charles River strain SS/JrHsdMcwiCrl) were fed control diet or 6% high salt diet (iD03121701-AIN-76a rodent diet with added 6% NaCl) for 21 weeks in total. At week 5, the high salt diet-fed rats were dosed PO with 100 mg/kg BT2 or vehicle once daily for the last 16 weeks of study. Echocardiography was performed at week 18 (myocardial performance index (MPI): control diet 0.567±0.034, high salt+vehicle 0.810±0.039, high salt+BT2 0.660±0.030; Isovolumic relaxation time (IVRT): control diet 23.154±0.60 ms, high salt+vehicle 36.507±2.20 ms, high salt+BT2 31.605±1.78 ms; Intraventricular septal thickness at diastole (IVDd): control 2.03±0.088 mm, high salt+vehicle 2.877±0.110 mm, high salt+BT2 2.489±0.089 mm). NT-pro-BNP (MSD K153JKD; control […], high salt+vehicle 1003.0±200.8 μg/mL, high salt+BT2 503.4±84.96 μg/mL), and proANP (MSD K153MBD; control 33.50±5.4 ng/mL, high salt 65.19±8.3 ng/mL, high salt+BT2 38.81±7.0 ng/mL) levels were measured in plasma using MSD assays at the terminal time point. Heart weights were measured at euthanasia and normalized to tibia length (heart/tibia control 0.033±0.001 g/mm; high salt+vehicle 0.042±0.001 g/mm, high salt+BT2 0.038±0.001 g/mm).

[3] = system: Mice fed 60% high fat diet; assay: Diabetic Animal Model: fasting glucose and oral glucose tolerance test; type: in vivo; settings: for fasting plasma glucose levels: mean±SEM, vehicle 185±18; for Area under the curve for the glucose tolerance test as percent of vehicle treated group: 1 g/kg dextrose, vehicle 100.0±7
Description: Mice fed 60% high fat diet (Research Diets 12492) were dosed PO with Example 1 for one day, fasted overnight, and blood glucose was measured with an alpha track glucometer. The animals were dosed again PO with Example 1 the next morning, and one hour later, blood glucose was measured again immediately using an alpha track glucometer (Zoetis, Parsippany, N.J.) to assess fasting glucose levels prior to oral gavage of 1 g/kg dextrose. Blood glucose was measured 15, 30, 60, and 120 minutes after the gavage, and the data were plotted and analyzed as area under the curve using GraphPad Prism 8.0 (GraphPad Software, La Jolla, Calif.). For animals that were dosed with vehicle or Example 1 as above, mean±SEM fasting plasma glucose levels were 185±18 (vehicle, n=7), 194±14 (3 mg/kg, n=9), 160±11 (10 mg/kg, n=10), 136±9 mg/dL (30 mg/kg, n=9). Area under the curve for the glucose tolerance test as percent of vehicle treated group was 100.0±7 (vehicle, n=7), 106±9 (3 mg/kg, n=9), 99±2 (10 mg/kg, n=10), 72±4 (30 mg/kg, n=9).

Structure (SMILES)	IC50 (human BCKDK)	IC50 [1]	Heart weight normalized to tibia length (heart/tibia) ([2]; at euthanasia, 100 mg/kg PO once daily, control 0.033±0.001, high salt+vehicle 0.042±0.001)	Intraventricular septal thickness at diastole (IVDd) ([2]; echocardiography week 18, 100 mg/kg PO once daily, control 2.03±0.088, high salt+vehicle 2.877±0.110)	myocardial performance index (MPI) ([2]; echocardiography week 18, 100 mg/kg PO once daily, control diet 0.567±0.034, high salt+vehicle 0.810±0.039)	Isovolumic relaxation time (IVRT) ([2]; echocardiography week 18, 100 mg/kg PO once daily, control diet 23.154±0.60, high salt+vehicle 36.507±2.20)	proANP level in plasma ([2]; terminal time point, 100 mg/kg PO once daily, control 33.50±5.4, high salt 65.19±8.3)	fasting plasma glucose levels ([3]; 3 mg/kg PO, n=9)	Area under the curve for the glucose tolerance test as percent of vehicle treated group ([3]; 3 mg/kg PO, n=9)	fasting plasma glucose levels ([3]; 10 mg/kg PO, n=10)	Area under the curve for the glucose tolerance test as percent of vehicle treated group ([3]; 10 mg/kg PO, n=10)	fasting plasma glucose levels ([3]; 30 mg/kg PO, n=9)	Area under the curve for the glucose tolerance test as percent of vehicle treated group ([3]; 30 mg/kg PO, n=9)
Cc1cc(Cl)sc1-c1nnn[nH]1 [Example 9, 5-(5-Chloro-3-methylthiophen-2-yl)-1H-tetrazole]	1.4 µM	11 ± 0.87 µM											
O=C(O)c1sc2cc(Cl)ccc2c1Cl [BT2]			0.038±0.001 g/mm	2.489±0.089 mm	0.660±0.030	31.605 ± 1.78 ms	38.81 ± 7.0 ng/mL						
Cc1c(Br)csc1-c1nnn[nH]1 [Example 1, 5-(4-Bromo-3-methylthiophen-2-yl)-1H-tetrazole]	1.9 µM	18 ± 2.3 µM						194 ± 14 mg/dL	106±9% of vehicle treated group	160 ± 11 mg/dL	99±2% of vehicle treated group	136 ± 9 mg/dL	72±4% of vehicle treated group
